{
  "source": "patent US10245330B2",
  "about": "“Compositions and methods for imaging” (The Regents of the University of California, priority 2010, dated 2019)",
  "test": "Solubility in water",
  "type": "physicochemical",
  "method": "^13C-BFA has suitable properties for polarization by DNP in that it is soluble forming >5 M solutions in water and readily forms a glass upon flash freezing. A 5 M solution of ^13C-BFA in water was prepared with 15 mM OXO63 radical and polarized by DNP by irradiating at 90940 MHz. A buildup time constant of 830 s provided ˜5% polarization (5450-fold enhancement factor) after 45 minutes. The spectroscopic detection of H2O2 of the probe was accomplished by rapidly dissolving polarized samples of ^13C-BFA in 100 mM phosphate buffer at pH 7.8 to a final concentration of 5 mM, followed by reaction with various concentrations of hydrogen peroxide.",
  "data": [
    {"smiles": "O=C(c1ccccc1)[13C](=O)O", "note": "[^13C-BFA, ^13C-benzoylformic acid]", "values": [
      {"measurement": "solubility (solutions in water)", "value": "> 5000", "unit": "mM"}
    ]}
  ]
}
